Drawing on PMC10542159 (bioRxiv, 2023), this text covers IC50, Km and K0.5 for three molecules.

Series [1] addresses T1, SpeG (Escherichia coli, UniProt P0A951).
T1 sequence (P0A951 1-186): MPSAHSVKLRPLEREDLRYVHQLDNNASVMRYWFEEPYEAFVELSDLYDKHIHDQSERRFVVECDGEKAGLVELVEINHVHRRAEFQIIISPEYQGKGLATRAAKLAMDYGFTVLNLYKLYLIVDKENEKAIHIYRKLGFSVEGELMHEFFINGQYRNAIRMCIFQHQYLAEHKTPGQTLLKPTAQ
The series can be described thus: continuous spectrophotometric acetyltransferase assay. The series is classed as biochemical.

Series [2] deals with T2, spermidine/spermine acetyltransferase 1 (SAT1) (Homo sapiens, UniProt P21673). The series can be described thus: continuous spectrophotometric acetyltransferase assay, […] spermidine as substrate. The series is classed as biochemical.
The target of series [3] is PA1472 (Pseudomonas aeruginosa, UniProt Q9I3P0).
Series [4] addresses T2, spermidine/spermine acetyltransferase 1 (SAT1).
Substrate in series [5]: NCCCCNCCCN
The series can be described thus: continuous spectrophotometric enzyme kinetics. The following applies: acetyl-CoA. The series is classed as biochemical, Escherichia coli.

T2 sequence (P21673 whole entry): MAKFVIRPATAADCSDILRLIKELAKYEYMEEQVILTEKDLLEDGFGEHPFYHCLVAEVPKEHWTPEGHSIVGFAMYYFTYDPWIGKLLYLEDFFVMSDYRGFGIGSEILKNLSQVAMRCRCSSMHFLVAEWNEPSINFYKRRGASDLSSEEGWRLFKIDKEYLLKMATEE
Chain of PA1472 (Q9I3P0 1-184): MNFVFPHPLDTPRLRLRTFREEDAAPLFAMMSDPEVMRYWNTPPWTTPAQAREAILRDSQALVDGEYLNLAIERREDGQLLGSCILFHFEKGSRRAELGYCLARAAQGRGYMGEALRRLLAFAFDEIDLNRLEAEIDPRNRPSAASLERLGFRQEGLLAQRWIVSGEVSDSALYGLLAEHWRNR

For the molecule `N=C(N)c1ccc(/N=N/Nc2ccc(C(=N)N)cc2)cc1` [diminazene], the IC50 in series [1] came to 26.2 ± 3.7 µM; in series [2], 21 ± 0.6 µM.
On to `NCCCCN` [putrescine], for which the values for the Km in series [3] and in series [4] were 30.7 ± 9.9 mM and 8.7 ± 2.43 mM, respectively.

B1: SpeG (Escherichia coli K-12) (protein)
chain: T1 sequence (P0A951 1-186)
Consider B1, for which the K0.5 in series [5] came out at 590.1 ± 30.8 µM.

In general, IC50 refers to the midpoint of a concentration-inhibition curve. A high value points to a need for much substance. By Km is commonly meant the substrate concentration at which the rate is half of its maximum.
